Like-named read-outs stand apart in the source and are kept apart here.
Tests used:
KRas G12C = KRas G12C (Homo sapiens, UniProt P01116, C118S/C51S/C80L/G12C); assay: KRas G12C Modification Assay (LCMS detection of covalent adduct); format: binding; conditions: normalized percent of control; tested at 5 μM concentration for 3 hours
Procedure, shortened: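 Cys-light KRas G12C mutant protein incubated with compound in K-Ras assay buffer, reactions quenched at set time points with 25 mM acetic acid and analysed by intact-protein LC/MS on a C-3 column. Deconvoluted mass heights expressed as percent of control (POC) relative to compound-free protein.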

[1] = tested on: NCI-H358 cells (express KRas G12C), Phospho-ERK; assay: Cellular inhibition of KRas G12C: Phospho-ERK in NCI-H358 cells; format: cell-based; conditions: pERK(Thr202/Tyr204) normalized with GAPDH, NCI-H358 cells, 3 hours, read-out: IC50
Procedure, shortened: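 IC50 derived by 4-parameter fit of GAPDH-normalized pERK(Thr202/Tyr204) signal, as percent of DMSO control. Signal came from in-cell immunodetection with infrared secondaries after 3 h compound exposure of KRas G12C NCI-H358 cells at 0.5% DMSO.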

POC (KRas G12C) | SMILES | IC50 ([1]; Homo sapiens, NCI-H358, 3 h) | IC50 [1] | IC50 ([1]; Homo sapiens)
C (“C”>50% POC) | C=CC(=O)N1CCN(c2nc(OCC3CCN(C4CCCCC4)C3)nc3c2CCN(c2cc(O)cc4ccccc24)C3)CC1 (stereo not drawn) [Example 132, 1-[4-[2-[(1-cyclohexylpyrrolidin-3-yl)methoxy]-7-(3-hydroxy-1-naphthyl)-6,8-dihydro-5H-pyrido[3,4-d]pyrimidin-4-yl]piperazin-1-yl]prop-2-en-1-one] | 0.0001 to 1 µM |  | 
C (“C”>50% POC) | C=CC(=O)N1CCN(c2nc(OCCN(C)C)nc3c2CCN(c2cc(O)cc4ccccc24)C3)CC1CO (stereo not drawn) [Example 50, 1-(4-(2-(2-(dimethylamino)ethoxy)-7-(3-hydroxynaphthalen-1-yl)-5,6,7,8-tetrahydropyrido[3,4-d]pyrimidin-4-yl)-2-(hydroxymethyl)piperazin-1-yl)prop-2-en-1-one] | > 1 µM |  | 
C (“C”>50% POC) | C=CC(=O)N1CCN(c2nc(OC[C@@H]3C[C@@H](OC)CN3C)nc3c2CCN(c2cccc4ccccc24)C3)CC1CC#N (stereo partly drawn) [Example 381, 2-(1-acryloyl-4-(2-(((2S,4R)-4-methoxy-1-methylpyrrolidin-2-yl)methoxy)-7-(naphthalen-1-yl)-5,6,7,8-tetrahydropyrido[3,4-d]pyrimidin-4-yl)piperazin-2-yl)acetonitrile] |  | 0.0001 to 1 µM | 
C (“C”>50% POC) | C=CC(=O)N1CCN(c2nc(OCCN(CC)CC)nc3c2CCN(c2ccccc2C(F)(F)F)C3)CC1CC#N (stereo not drawn) [Example 284, 2-(1-acryloyl-4-(2-(2-(diethylamino)ethoxy)-7-(2-(trifluoromethyl)phenyl)-5,6,7,8-tetrahydropyrido[3,4-d]pyrimidin-4-yl)piperazin-2-yl)acetonitrile] | 0.0001 to 1 µM |  | 
C (“C”>50% POC) | C=CC(=O)N1CCN(c2nc(OC[C@H]3CN(C)C(C)(C)CO3)nc3c2CCN(c2cccc4ccccc24)C3)C[C@@H]1CC#N [Example 450, 2-((S)-1-Acryloyl-4-(7-(naphthalen-1-yl)-2-(((R)-4,5,5-trimethylmorpholin-2-yl)methoxy)-5,6,7,8-tetrahydropyrido[3,4-d]pyrimidin-4-yl)piperazin-2-yl)acetonitrile] | 0.0001 to 1 µM |  | 
A (“A”≤25% POC) | C=CC(=O)N1CCN(c2nc(OCCCN(C)C)nc3c2CCN(C(C)c2ccccc2)C3)CC1 (stereo not drawn) [Example 25, 1-(4-(2-(3-(dimethylamino)propoxy)-7-(1-phenylethyl)-5,6,7,8-tetrahydropyrido[3,4-d]pyrimidin-4-yl)piperazin-1-yl)prop-2-en-1-one] |  |  | > 1 µM
C (“C”>50% POC) | C=CC(=O)N1CCN(c2nc(OC[C@@H]3CCCN3C)nc3c2CCN(c2cccc(F)c2OC)C3)CC1CC#N (stereo partly drawn) [Example 308, 2-[4-[7-(3-fluoro-2-methoxy-phenyl)-2-[[(2S)-1-methylpyrrolidin-2-yl]methoxy]-6,8-dihydro-5H-pyrido[3,4-d]pyrimidin-4-yl]-1-prop-2-enoyl-piperazin-2-yl]acetonitrile] | 0.0001 to 1 µM |  | 
C (“C”>50% POC) | C=CC(=O)N1CCN(c2nc(OC[C@@H]3CCCN3C)nc3c2CCN(c2cncc(Cl)c2C)C3)C[C@@H]1CC#N [Example 387, 2-((S)-1-acryloyl-4-(7-(5-chloro-4-methylpyridin-3-yl)-2-(((S)-1-methylpyrrolidin-2-yl)methoxy)-5,6,7,8-tetrahydropyrido[3,4-d]pyrimidin-4-yl)piperazin-2-yl)acetonitrile] | 0.0001 to 1 µM |  | 
A (“A”≤25% POC) | C=CC(=O)N1CCN(c2nc(O[C@H](C)CN(C)C)nc3c2CCN(c2c(C)ccc(F)c2O)C3)CC1 [Example 87, (R)-1-(4-(2-((1-(dimethylamino)propan-2-yl)oxy)-7-(3-fluoro-2-hydroxy-6-methylphenyl)-5,6,7,8-tetrahydropyrido[3,4-d]pyrimidin-4-yl)piperazin-1-yl)prop-2-en-1-one] |  |  | > 1 µM
C (“C”>50% POC) | C=CC(=O)N1CCN(c2nc(OCCN3CCC(C#N)CC3)nc3c2CCN(c2cc(O)cc4ccccc24)C3)CC1 [Example 81, 1-(2-((4-(4-acryloylpiperazin-1-yl)-7-(3-hydroxynaphthalen-1-yl)-5,6,7,8-tetrahydropyrido[3,4-d]pyrimidin-2-yl)oxy)ethyl)piperidine-4-carbonitrile] | > 1 µM |  | 
C (“C”>50% POC) | C=CC(=O)N1CCN(c2nc(OCCC(=O)N(C)C)nc3c2CCN(c2cccc4cccc(C)c24)C3)C[C@@H]1CC#N [Example 371, (S)-3-((4-(4-acryloyl-3-(cyanomethyl)piperazin-1-yl)-7-(8-methylnaphthalen-1-yl)-5,6,7,8-tetrahydropyrido[3,4-d]pyrimidin-2-yl)oxy)-N,N-dimethylpropanamide] | 0.0001 to 1 µM |  | 
C (“C”>50% POC) | C=CC(=O)N1CCN(c2nc(OC[C@@]3(C)CCCN3C)nc3c2CCN(c2cccc(F)c2C(F)(F)F)C3)CC1CC#N (stereo partly drawn) [Example 417, 2-(1-acryloyl-4-(2-(((R)-1,2-dimethylpyrrolidin-2-yl)methoxy)-7-(3-fluoro-2-(trifluoromethyl)phenyl)-5,6,7,8-tetrahydropyrido[3,4-d]pyrimidin-4-yl)piperazin-2-yl)acetonitrile] |  |  | 0.0001 to 1 µM
C (“C”>50% POC) | C=CC(=O)N1CCN(c2nc(OC3CCN(C)C3)nc3c2CCN(c2cc(O)cc4ccccc24)C3)CC1 (stereo not drawn) [Example 23, 1-(4-(7-(3-hydroxynaphthalen-1-yl)-2-((1-methylpyrrolidin-3-yl)oxy)-5,6,7,8-tetrahydropyrido[3,4-d]pyrimidin-4-yl)piperazin-1-yl)prop-2-en-1-one] | > 1 µM |  | 
C (“C”>50% POC) | C=CC(=O)N1CCN(c2nc(OC[C@@H]3CCCN3C)nc3c2CCN(c2cccc(Cl)c2OC)C3)C[C@@H]1CC#N [Example 421, 2-((S)-1-acryloyl-4-(7-(3-chloro-2-methoxyphenyl)-2-(((S)-1-methylpyrrolidin-2-yl)methoxy)-5,6,7,8-tetrahydropyrido[3,4-d]pyrimidin-4-yl)piperazin-2-yl)acetonitrile] | 0.0001 to 1 µM |  | 
C (“C”>50% POC) | C=CC(=O)N1CCN(c2nc(OCCCN3C[C@@H]4C[C@H]3CO4)nc3c2CCN(c2c(C)ccc4[nH]ncc24)C3)CC1 [Example 181, 1-(4-(2-(3-((1 S,4S)-2-oxa-5-azabicyclo[2.2.1]heptan-5-yl)propoxy)-7-(5-methyl-1H-indazol-4-yl)-5,6,7,8-tetrahydropyrido[3,4-d]pyrimidin-4-yl)piperazin-1-yl)prop-2-en-1-one] |  |  | > 1 µM
C (“C”>50% POC) | C=CC(=O)N1CCN(c2nc(OC[C@@H]3CCCN3C)nc3c2CCN(c2cccc(C)c2Cl)C3)C[C@@H]1CC#N [Example 424, 2-((S)-1-acryloyl-4-(7-(2-chloro-3-methylphenyl)-2-(((S)-1-methylpyrrolidin-2-yl)methoxy)-5,6,7,8-tetrahydropyrido[3,4-d]pyrimidin-4-yl)piperazin-2-yl)acetonitrile] | 0.0001 to 1 µM |  | 
C (“C”>50% POC) | C=CC(=O)N1CCN(c2nc(OCCCN3C[C@@H]4C[C@H]3CO4)nc3c2CCN(c2cccc4cccc(Cl)c24)C3)C[C@@H]1CC#N [Example 365, 2-[(2S)-4-[7-(8-chloro-1-naphthyl)-2-[3-[(1S,4S)-2-oxa-5-azabicyclo[2.2.1]heptan-5-yl]propoxy]-6,8-dihydro-5H-pyrido[3,4-d]pyrimidin-4-yl]-1-prop-2-enoyl-piperazin-2-yl]acetonitrile] | 0.0001 to 1 µM |  | 
C (“C”>50% POC) | C=CC(=O)N1CCN(c2nc(OC[C@@H]3CCCN(C)C3)nc3c2CCN(c2cc(O)cc4ccccc24)C3)CC1 [Example 192, (R)-1-(4-(7-(3-hydroxynaphthalen-1-yl)-2-((1-methylpiperidin-3-yl)methoxy)-5,6,7,8-tetrahydropyrido[3,4-d]pyrimidin-4-yl)piperazin-1-yl)prop-2-en-1-one] | 0.0001 to 1 µM |  | 
C (“C”>50% POC) | C=CC(=O)N1CCN(c2nc(OCCCN3C[C@@H]4C[C@H]3CO4)nc3c2CCN(c2cccc4cccc(C)c24)C3)C[C@@H]1CC#N [Example 369, 2-((S)-4-(2-(3-((1 S,4S)-2-oxa-5-azabicyclo[2.2.1]heptan-5-yl)propoxy)-7-(8-methylnaphthalen-1-yl)-5,6,7,8-tetrahydropyrido[3,4-d]pyrimidin-4-yl)-1-acryloylpiperazin-2-yl)acetonitrile] | 0.0001 to 1 µM |  | 

SMILES | POC (KRas G12C) | IC50 ([1]; Homo sapiens, NCI-H358, 3 h) | IC50 [1] | IC50 ([1]; Homo sapiens)
C=CC(=O)N1CCN(c2nc(OC[C@@H]3CCCN3C)nc3c2CCN(c2ccccc2C(C)C)C3)CC1 [Example 158, 1-[4-[7-(2-isopropylphenyl)-2-[[(2S)-1-methylpyrrolidin-2-yl]methoxy]-6,8-dihydro-5H-pyrido[3,4-d]pyrimidin-4-yl]piperazin-1-yl]prop-2-en-1-one] | C (“C”>50% POC) |  |  | > 1 µM
C=CC(=O)N1CCN(c2nc(OC[C@@H]3CCCN3C)nc3c2CCN(c2c(C(F)(F)F)ccc4[nH]ncc24)C3)CC1CC#N (stereo partly drawn) [Example 149, 2-[4-[2-[[(2S)-1-methylpyrrolidin-2-yl]methoxy]-7-[5-(trifluoromethyl)-1H-indazol-4-yl]-6,8-dihydro-5H-pyrido[3,4-d]pyrimidin-4-yl]-1-prop-2-enoyl-piperazin-2-yl]acetonitrile] | B (“B”>25% POC−≤50% POC) |  |  | 0.0001 to 1 µM
